From patent US20230241185A1, “COMPOSITION COMPRISING A DNA-DEGRADING ENZYME FOR USE IN A METHOD FOR THE TREATMENT OF IMMUNOSUPPRESSION AFTER ACUTE TISSUE INJURY” (Klinikum der Universität München, priority 2020, published 2023)
“Also recorded” adds a separate entry of the source.

Assays:
Type in all cases: in vivo, mice
S. pneumoniae = experiment: Post-stroke intranasal bacterial infection, CFU burden in trachea; conditions: VX765 vs control; 10^6 CFU S. pneumoniae intranasally 12 h after stroke; CFU 14 h later
Description: (§1) Mice were anaesthetized with isoflurane delivered in a mixture of 30% O2 and 70% N2O. An incision was made between the ear and the eye in order to expose the temporal bone. Mice were placed in supine position, and a laser Doppler probe was affixed to the skull above the middle cerebral artery (MCA) territory. The common carotid artery and left external carotid artery were exposed via midline incision and further isolated and ligated. […] Lack of brain ischemia as quantified post-mortem by histological analysis. […]
S. pneumoniae TIGR4, an encapsulated strain of serotype 4, was grown overnight on Columbia blood agar plates (37° C., 5% CO2), single colonies were cultured in Todd-Hewitt broth with 1% yeast extract to mid-logarithmic phase (OD600 nm: 0.35), washed, and diluted in sterile PBS to the desired concentration. […] Serial dilutions of lung and tracheal tissue homogenates were plated onto blood agar plates and CFU were determined after 16 h of incubation.

splenic CD3^+ T cells [1] = experiment: Splenic T cell counts by FACS after experimental stroke; conditions: VX-765 100 mg kg^−1 i.p. 1 h prior to stroke vs vehicle; normalized to sham
Description: Mice were anaesthetized with isoflurane delivered in a mixture of 30% O2 and 70% N2O. An incision was made between the ear and the eye in order to expose the temporal bone. Mice were placed in supine position, and a laser Doppler probe was affixed to the skull above the middle cerebral artery (MCA) territory. The common carotid artery and left external carotid artery were exposed via midline incision and further isolated and ligated. A 2-mm silicon-coated filament (Doccol) was inserted into the internal carotid artery, advanced gently to the MCA until resistance was felt, and occlusion was confirmed by a corresponding decrease in blood flow (i.e., a decrease in the laser Doppler flow signal by 80%. After 60 minutes of occlusion, the animals were re-anesthetized, and the filament was removed. After recovery, the mice were kept in their home cage with ad libitum access to water and food. Sham-operated mice received the same surgical procedure, but the filament was […] in lieu of being advanced to the MCA. Body temperature was maintained at 37° C. throughout surgery in all mice via feedback-controlled heating pad. The overall mortality rate of animals subjected to MCA occlusion was approximately 20%. All animals in the sham group survived the procedure. Exclusion criteria: 1. Insufficient MCA occlusion (a reduction in blood flow to […] of the baseline value). 2. Death during the surgery. 3. Lack of brain ischemia as quantified post-mortem by histological analysis.
Anti-IL1β: Mice received two injections of antagonizing anti-IL-1β in sterile saline (clone: B122, InVivoMab, BioXcell, US), 1 hour prior to and 1 hour after surgery. Anti-IL-1β or the corresponding IgG control (Armenian hamster IgG, InVivoMab, BioXcell, US) was injected i.p. at a dose of 4 mg kg^−1 body weight in a final volume of 200 μl.
Anti-FasL: Mice received two injections of antagonizing anti-FasL in sterile saline (clone: MFL3, InVivoMab, BioXcell, US), 1 hour prior to and 1 hour after surgery. […]

K. pneumoniae = experiment: Post-stroke intranasal bacterial infection, CFU burden in lung; conditions: VX765 vs control; 2×10^5 CFU K. pneumoniae intranasally 12 h after stroke; CFU 14 h later
CD45^+ splenocytes [2] = experiment: CD45+ splenocyte counts by FACS after burn injury; conditions: VX-765 100 mg kg^−1 i.p. 1 h prior to burn injury vs vehicle; normalized to sham
Description: (§2) Male C57Bl/6J mice (Charles River, Freiburg, Germany), aged 7-8 weeks, received a 35% total body surface area (TBSA) full thickness scald burn to the back through 10 seconds immersion in 98° C. water under deep anesthesia with 2% isoflurane and analgesia with 0.1 mg kg^−1 buprenorphine. Immediately after burn injury, the mice were resuscitated with 2 ml of lactated Ringer's solution (Baxter, Unterschleißheim, Germany) via i.p. injection as previously described (Hundeshagen et al., 2018; Bohannon et al., 2008; Toliver-Kinsky et al., 2005). Animals in the sham burn group were subjected to identical treatment except for water temperature during immersion being 36 C. Following burn injury or sham burn, mice were singly housed at room temperature (21° C.). […]
(§3) The anti-mouse antibodies listed below (see Table 1) were used for surface marker staining of CD45^+ leukocytes, CD45^+CD11b^+ monocytes (+FasL^+ expression), CD3^+ T cells, CD3^+CD4^+ Thelper cells, CD3^+CD8^+ Tcytotox cells and CD19^+ B cells (for representative gating strategy, see FIG. 10A). […] Flow cytometric data was acquired using a BD FACSverse flow cytometer (BD Biosciences) and analyzed using FlowJo software (Treestar).

splenic CD3^+ T cells [3] = experiment: Splenic T cell counts by FACS after burn injury; conditions: VX-765 100 mg kg^−1 i.p. 1 h prior to burn injury vs vehicle; normalized to sham
Description: as §2, §3

CD45^+ splenocytes [4] = experiment: CD45+ splenocyte counts (spleen cellularity) by FACS after experimental stroke; conditions: VX-765 100 mg kg^−1 i.p. 1 h prior to stroke vs vehicle; normalized to sham
Description: as §1, §3

[5] = Infarct volumetry after stroke; conditions: VX-765 vs control treatment; 18 h after stroke
Description: as §1
Mice were euthanized by overdose of ketamine-xylazine and perfused intracardially with normal saline. […] Infarct area of each section was assessed by ImageJ software (NIH). […] The total infarct volume was determined by integrating measured areas and distances between sections.

SMILES: CCO[C@@H]1OC(=O)C[C@@H]1NC(=O)[C@@H]1CCCN1C(=O)[C@@H](NC(=O)c1ccc(N)c(Cl)c1)C(C)(C)C [VX-765, Belnacasan]
- bacterial load (CFU) in trachea (S. pneumoniae): reduced post-injury bacterial load comparable to sham-operated group
- splenic CD3+ T cell counts (survival) (splenic CD3^+ T cells [1]): improved T cell survival; also recorded: improved survival after VX-765 treatment compared to control
- bacterial load (CFU) in lung (K. pneumoniae): reduced post-injury bacterial load comparable to sham-operated group
- overall CD45+ splenocyte counts (spleen cellularity) (CD45^+ splenocytes [2]): improved T cell survival and spleen cellularity; also recorded: improved survival after VX-765 treatment compared to control
- splenic CD3+ T cell counts (survival) (splenic CD3^+ T cells [3]): improved T cell survival; also recorded: improved survival after VX-765 treatment compared to control
- overall CD45+ splenocyte counts (spleen cellularity) (CD45^+ splenocytes [4]): improved T cell survival and spleen cellularity; also recorded: improved survival after VX-765 treatment compared to control
- infarct volume (primary lesion size) [5]: neither genetic nor pharmacological caspase-1 deficiency had a significant effect on the primary lesion size; also recorded: No significant difference in infarct volume between groups
